Source: US11413278B2, “Compounds and methods for promoting stress resistance” (priority 2015, dated 2022)
Like-named read-outs stand apart in the source and are kept apart here.

Legend:
human PARP1 = target: T1, human PARP1 (Homo sapiens, UniProt P09874); assay: PARP inhibitor assay (HT Fluorescent Homogeneous PARP Inhibition Assay Kit); type: biochemical; conditions: score
T1 construct: purchased Trevigen
How it was run: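 Compounds (10 μM final) incubated 30 min, room temperature, dark, with human PARP1, nicotinamide adenine dinucleotide and activated DNA. Fluorescent signal generated by 1 hr cycling with diaphorase and resazurin, then reaction stopped.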

WI-38 cells [1] = assay: CdCl2 (cadmium) resistance assay; type: cell-based, human; conditions: for fold induction at 10 µM: Homo sapiens, 12 h, normalized ATP measurement
How it was run: (§1)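 Resistance to CdCl2 or MMS stress (12 h exposure) was scored in WI-38 fibroblasts pretreated with compound at 0.25–20 μM final, five doses, technical triplicates. MMS plates had compound added 24 h before MMS, after a shift to serum-free DMEM+2% BSA. Significance came from a global variance t-test over two independent runs.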

WI-38 cells [2] = assay: MMS resistance assay; type: cell-based, human; conditions: for fold induction at 10 µM: Homo sapiens, 12 h, normalized ATP measurement
How it was run: as §1

C. elegans = C. elegans lifespan assays (liquid and plate); type: in vivo, Caenorhabditis elegans; conditions: for ILS at 60 µM / ILS at 66 µM: Caenorhabditis elegans; for O = Life span- extending scores in worms: score scale 0 to 2, 4 to 6 independent trials; for M = Lifespan-extending scores in worms: summary score
[3] = tested on: phosphorylated γH2A.X and TP53BP1; assay: DNA damage marker analysis (immuno-staining); conditions: for activity at 10 µM: Homo sapiens, WI-38, 24 h; for P = Potential DNA-damaging / R = Potential DNA damaging: human, 24 h
Description: WI-38 cells were seeded on 96-well plates and cultured for 24 hrs and then incubated with small molecules for another 24 hrs. As the positive control to damage DNA, H2O2 was supplemented at 700 μM final concentration for the last 3 hrs. Cells were washed with phosphate-buffered saline (PBS), fixed with 4% paraformaldehyde and then blocked with 5% normal goat serum (Cell Signaling), plus 0.3% Triton X-100, for 1 hr. Primary antibody cocktail (rabbit anti-phospho-histone γH2A.X (Ser-139), 1:100; anti-phospho-TP53BP1 (Ser-1778), 1:100), prepared in 1% BSA and 0.3% Triton X-100/PBS, was then introduced and incubated overnight at 4 C. Next day, samples were washed with PBS and further incubated with fluorophore-conjugated secondary antibody (1:1,000) for 1 hr in the dark. Samples were then washed and incubated with DAPI dye (Life Technologies) (4 μg/ml final concentration) for the last 10 minutes. Images were collected on an INCell Analyzer 2000 (GE) and analyzed with the Developer software.
WI-38 cells were seeded (˜8,000 cells per well) on 96-well plates and cultured for 24 hrs and then incubated with small molecules for another 24 hrs. Doxorubicin (300 nM, 24 hrs) and H2O2 (700 μM, 3 hrs) were also introduced as the positive controls to damage DNA. Cells were washed with phosphate-buffered saline (PBS), fixed with 4% paraformaldehyde for 30 min and then blocked with 5% normal goat serum (Cell Signaling) and 0.3% Triton X-100 for 1 hr. Primary antibody cocktail (Cell Signaling, rabbit anti-phospho-histone γH2A.X (Ser-139), 1:100; anti-phospho-TP53BP1 (Ser-1778), 1:100) was prepared in PBS with 1% BSA and 0.3% Triton X-100 and incubated overnight at 4° C. Next day, samples were washed with PBS and further incubated with fluorophore-conjugated secondary antibody (1:1,000) for 1 hr in dark. Samples were then washed and incubated with DAPI dye (Life Technologies) (4 μg/ml final concentration) for 30 minutes. Images were collected on the INCell Analyzer 2000 (10× objective) and analyzed with the Developer Toolbox.

[4] = Exp. 1, WI-38 cells, read-out: Exp. 1, under Cd2Cl2 stress treatment, at 10 uM (fold change)
[5] = Exp. 2, WI-38 cells, read-out: Exp. 2, under Cd2Cl2 stress treatment, at 10 uM (fold change)
[6] = score in summary of 38 core set hits
[7] = Exp. 1, WI-38 cells, read-out: Exp. 1, under MMS stress treatment, at 10 uM (fold change)
[8] = Exp. 2, WI-38 cells, read-out: Exp. 2, under MMS stress treatment, at 10 uM (fold change)
[9] = in liquid, wild type, with FuDR, 1.0 × 10^9 bacteria/ml, read-out: relative change of mean lifespan vs control, Trial 1
[10] = in liquid, wild type, with FuDR, 2.5 × 10^9 bacteria/ml, read-out: relative change of mean lifespan vs control, Trial 2
[11] = on plate, CF512 temperature-sensitive sterile animals, without FuDR, 2.0 × 10^10 bacteria/ml, read-out: relative change of mean lifespan vs control, Trial 3
[12] = Assay 2(z), 1.0 × 10^9 bacteria/ml, wild type + FuDR (2012 July), read-out: Lifespan assay in liquid
[13] = Assay 3(aa), 2.5 × 10^9 bacteria/ml, wild type + FuDR, read-out: Lifespan assay in liquid
[14] = Assay 4(ab), 2.0 × 10^10 bacteria/ml, CF512 worms, no FuDR, read-out: Lifespan assay on plates
[15] = read-out: Experiment 1, H2A.X-P DNA damage foci staining (no H2O2 stress treatment), at 10 uM
[16] = read-out: Experiment 2, H2A.X-P DNA damage foci staining (no H2O2 stress treatment), at 10 uM
[17] = read-out: Experiment 2, H2A.X-P DNA damage foci staining (under H2O2 stress treatment), at 10 uM
[18] = read-out: Experiment 2, TP53BP1-P DNA damage foci staining (no H2O2 stress treatment), at 10 uM
[19] = read-out: Experiment 2, TP53BP1-P DNA damage foci staining (under H2O2 stress treatment), at 10 uM

T1 sequence (P09874 whole entry): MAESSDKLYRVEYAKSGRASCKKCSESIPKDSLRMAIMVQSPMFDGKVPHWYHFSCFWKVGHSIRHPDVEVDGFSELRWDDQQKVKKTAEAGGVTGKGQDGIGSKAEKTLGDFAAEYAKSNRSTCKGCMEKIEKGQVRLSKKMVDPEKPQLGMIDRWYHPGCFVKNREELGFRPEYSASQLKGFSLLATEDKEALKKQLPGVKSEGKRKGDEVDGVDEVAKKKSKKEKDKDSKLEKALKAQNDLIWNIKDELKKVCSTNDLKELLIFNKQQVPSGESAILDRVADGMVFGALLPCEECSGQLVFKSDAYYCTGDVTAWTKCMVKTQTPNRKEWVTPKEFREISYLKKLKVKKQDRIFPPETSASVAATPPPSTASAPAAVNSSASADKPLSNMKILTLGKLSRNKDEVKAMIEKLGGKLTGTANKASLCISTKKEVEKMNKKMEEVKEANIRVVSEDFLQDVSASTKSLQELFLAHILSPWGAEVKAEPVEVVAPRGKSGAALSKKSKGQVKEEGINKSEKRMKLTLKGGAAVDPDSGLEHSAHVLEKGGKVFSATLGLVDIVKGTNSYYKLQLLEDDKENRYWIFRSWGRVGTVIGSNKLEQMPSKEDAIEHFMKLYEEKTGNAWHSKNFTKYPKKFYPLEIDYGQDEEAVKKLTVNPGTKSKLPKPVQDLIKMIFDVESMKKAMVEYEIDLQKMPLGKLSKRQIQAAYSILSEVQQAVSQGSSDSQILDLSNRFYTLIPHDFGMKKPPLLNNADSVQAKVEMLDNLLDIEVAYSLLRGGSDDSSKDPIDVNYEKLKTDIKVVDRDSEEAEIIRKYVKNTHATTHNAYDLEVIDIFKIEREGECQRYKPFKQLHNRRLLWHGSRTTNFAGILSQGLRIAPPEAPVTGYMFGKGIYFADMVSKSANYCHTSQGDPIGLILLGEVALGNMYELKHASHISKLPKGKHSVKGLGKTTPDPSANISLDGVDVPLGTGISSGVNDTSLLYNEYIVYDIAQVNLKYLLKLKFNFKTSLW

SMILES	L = PARP inhibition (human PARP1)	fold induction at 10 µM (WI-38 cells [1]; [4])	fold induction at 10 µM (WI-38 cells [1]; [5])	A = Cadmium resistant (WI-38 cells [1]; [6])	A = Cadmium resistant (WI-38 cells [1]; summary score)	C = H2O2- & Cd-resistant (WI-38 cells [1]; summary score)	fold induction at 10 µM (WI-38 cells [2]; [7])	fold induction at 10 µM (WI-38 cells [2]; [8])	B = MMS resistant (WI-38 cells [2]; [6])	B = MMS resistant (WI-38 cells [2]; summary score)	D = Triple resistant (WI-38 cells [2]; summary score)	ILS at 60 µM (C. elegans; [9])	ILS at 60 µM (C. elegans; [10])	ILS at 60 µM (C. elegans; [11])	ILS at 66 µM (C. elegans; [12])	ILS at 66 µM (C. elegans; [13])	ILS at 66 µM (C. elegans; [14])	O = Life span- extending scores in worms (C. elegans)	M = Lifespan-extending scores in worms (C. elegans)	activity at 10 µM [3, 15]	also measured
O=C(/C=C/c1cn(-c2ccccc2)nc1-c1cccnc1)c1ccccc1 [Gr-6B]	0	5.07	2.65	1	1	1	2.12	1.22	0	1	2	3%	0.2%	20.6%	3%	0.2%	20.6%	0	0	93.4%	CdCl2-resistant (WI-38 cells [1]): YES; H2O2- & CdCl2-resistant (WI-38 cells [1]): YES; CdCl2-resistant (WI-38 cells [1]; WI-38 cells, 10 μM): YES; H2O2- & CdCl2-resistant (WI-38 cells [1]; WI-38 cells, 10 μM, both stressors): YES; Assay 4: H2O2- & Cd-resistant (WI-38 cells [1]; YES/NO): YES; Assay 2: Cadmium-resistant (WI-38 cells [1]; YES/NO, * indicates partial): YES; Assay 3: MMS-resistant (WI-38 cells [2]; YES/NO, * indicates partial): YES; Assay 5: Triple resistant (WI-38 cells [2]; YES/NO, H2O2, cadmium and MMS): YES; ILS at 60 µM (C. elegans; on plate, CF512 temperature-sensitive sterile animals, without FuDR, 1.0 × 10^11 bacteria/ml, read-out: relative change of mean lifespan vs control, Trial 4): -1.3%; ILS at 66 µM (C. elegans; Assay 5(ac), 1.0 × 10^11 bacteria/ml, CF512 worms, no FuDR, read-out: Lifespan assay on plates): -1.3%; activity at 10 µM [3, 16]: 112%; activity at 10 µM [3, 17]: 136%; activity at 10 µM [3, 18]: 176%; activity at 10 µM [3, 19]: 272%; P = Potential DNA-damaging [3]: 0; R = Potential DNA damaging [3]: 0
COc1ccc(/C=C2\SC(=N)N(c3nccs3)C2=O)cc1 [O21]	0	0.03	0.04	0	0	0	0.74	0.94	0	0	0	7.9%	-0.5%	12.2%	7.9%	-0.5%	12.2%	0	0	161%	activity at 10 µM [3, 16]: 216%; activity at 10 µM [3, 17]: 127%; activity at 10 µM [3, 18]: 196%; activity at 10 µM [3, 19]: 620%; P = Potential DNA-damaging [3]: 1; R = Potential DNA damaging [3]: 1
